Laboratory results published in US20260092074A1, “Annelated Pyridines as Steroidogenesis Inhibitors, Preparation Method and Use Thereof” (Guangzhou Vinnocent Pharmaceutical Limited, priority 2022, published 2026).

Key:
[1] = target: T1, human CYP11B2 (Homo sapiens, UniProt P19099); experiment: Inhibition of hCYP11B2 in transfected V79 cells; assay type: cell-based; details: hamster V79 cells expressing human CYP11B2; substrate 11-deoxycorticosterone 200 nM
T1 construct: expressed in transfected cells
T1 sequence (P19099 25-503): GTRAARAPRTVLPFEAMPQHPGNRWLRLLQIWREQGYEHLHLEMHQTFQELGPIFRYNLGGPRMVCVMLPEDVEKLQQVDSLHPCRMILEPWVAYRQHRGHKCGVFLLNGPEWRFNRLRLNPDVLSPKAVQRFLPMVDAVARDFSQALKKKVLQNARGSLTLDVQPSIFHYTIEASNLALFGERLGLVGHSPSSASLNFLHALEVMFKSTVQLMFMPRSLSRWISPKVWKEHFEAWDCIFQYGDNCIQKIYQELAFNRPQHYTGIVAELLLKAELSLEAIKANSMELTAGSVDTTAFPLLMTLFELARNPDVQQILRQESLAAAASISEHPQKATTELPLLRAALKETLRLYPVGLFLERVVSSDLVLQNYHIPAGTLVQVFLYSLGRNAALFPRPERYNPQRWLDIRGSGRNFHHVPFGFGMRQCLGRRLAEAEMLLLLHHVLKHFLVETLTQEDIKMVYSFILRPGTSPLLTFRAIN
Summary of the method: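 The substrate (200 nM, 30 min) was added after a 2 hour compound pre-incubation in lentivirus-transduced V79 cells stably expressing human CYP11B2 plus rat NADPH-P450 reductase.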

[2] = target: T2, human CYP11B1 (Homo sapiens, UniProt P15538); experiment: Inhibition of hCYP11B1 in transfected V79 cells; assay type: cell-based; details: hamster V79 cells expressing human CYP11B1; substrate 11-deoxycortisol 200 nM
T2 construct: expressed in transfected cells
T2 sequence (P15538 25-503): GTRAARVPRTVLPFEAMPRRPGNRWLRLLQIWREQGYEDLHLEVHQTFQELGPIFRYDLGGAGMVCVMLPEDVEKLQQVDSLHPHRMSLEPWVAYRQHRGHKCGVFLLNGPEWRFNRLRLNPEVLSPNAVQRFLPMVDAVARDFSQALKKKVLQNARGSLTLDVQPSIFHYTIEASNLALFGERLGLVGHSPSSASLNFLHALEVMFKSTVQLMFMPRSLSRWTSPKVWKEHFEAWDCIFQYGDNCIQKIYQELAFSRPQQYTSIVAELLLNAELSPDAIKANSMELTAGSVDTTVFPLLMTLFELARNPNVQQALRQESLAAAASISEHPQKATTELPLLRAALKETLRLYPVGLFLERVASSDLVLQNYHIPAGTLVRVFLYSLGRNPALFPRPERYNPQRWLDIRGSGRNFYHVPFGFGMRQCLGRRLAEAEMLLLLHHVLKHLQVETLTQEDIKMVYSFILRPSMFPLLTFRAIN
Summary of the method: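 Reactions started with 200 nM 11-deoxycortisol, ran for 30 min and were stopped with ethyl acetate, after a 2 h compound preincubation. The host was stably transfected V79 hamster cells carrying human CYP11B1 plus rat P450 reductase. Percent inhibition, from LC-MS/MS or HPLC (260 nm) quantitation of substrate and product, gave the IC50.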

| IC50 [1] [nM] | IC50 [2] [nM] | SMILES |
| --- | --- | --- |
| 593 | 746 | Cn1c(=O)c(=O)[nH]c2cncc(-c3ccc(F)cc3)c21 [N2, 8-(4-Fluorophenyl)-1-methyl-1,4-dihydropyrido[3,4-b]pyrazine-2,3-dione] |
| 311 | 394 | CN1CCNc2cncc(-c3ccc(C#N)cc3)c21 [N3, 4-(1-Methyl-1,2,3,4-tetrahydropyrido[3,4-b]pyrazin-8-yl)benzonitrile] |
| 0.6 | 5.2 | CN1CCN(S(=O)(=O)c2ccc(C#N)cc2)c2cncc(-c3ccc(C#N)cc3)c21 [N4, 4-((8-(4-Cyanophenyl)-1-methyl-2,3-dihydropyrido[3,4-b]pyrazin-4 (1H)-yl)sulfonyl)benzonitrile] |
| 7.8 | 48 | CN1CCN(C(=O)c2ccc(F)cc2)c2cncc(-c3ccc(C#N)cc3)c21 [N5, 4-(4-(4-Fluorobenzoyl)-1-methyl-1,2,3,4-tetrahydropyrido[3,4-b]pyrazin-8-yl)benzonitrile] |
| 655 | 661 | Cn1cnc2cncc(-c3ccc(C#N)cc3)c21 [N6, 4-(1-Methyl-1H-imidazo[4,5-c]pyridin-7-yl)benzonitrile] |
| 679 | 453 | N#Cc1ccc(-c2cncc3ncn(C4CC4)c23)cc1 [N7, 4-(1-Cyclopropyl-1H-imidazo[4,5-c]pyridin-7-yl)benzonitrile] |
| 0.16 | 0.22 | N#Cc1ccc(-c2cncc3c2OCCN3S(=O)(=O)c2ccccc2)cc1 [O1, 4-(4-(Phenylsulfonyl)-3,4-dihydro-2H-pyrido[4,3-b][1,4]oxazin-8-yl)benzonitrile] |
| 0.13 | 0.56 | N#Cc1ccc(-c2cncc3c2OCCN3S(=O)(=O)c2ccc(F)cc2)cc1 [O2, 4-(4-((4-Fluorophenyl)sulfonyl)-3,4-dihydro-2H-pyrido[4,3-b][1,4]oxazin-8-yl)benzonitrile] |
| 0.14 | 0.1 | N#Cc1ccc(-c2cncc3c2OCCN3S(=O)(=O)c2cccc(F)c2)cc1 [O3, 4-(4-((3-Fluorophenyl)sulfonyl)-3,4-dihydro-2H-pyrido[4,3-b][1,4]oxazin-8-yl)benzonitrile] |
| 0.1 | 0.1 | Cc1ccc(S(=O)(=O)N2CCOc3c(-c4ccc(C#N)cc4)cncc32)cc1 [O4, 4-(4-Tosyl-3,4-dihydro-2H-pyrido[4,3-b][1,4]oxazin-8-yl)benzonitrile] |
| 0.23 | 0.48 | Cc1cccc(S(=O)(=O)N2CCOc3c(-c4ccc(C#N)cc4)cncc32)c1 [O5, 4-(4-(m-Tolylsulfonyl)-3,4-dihydro-2H-pyrido[4,3-b][1,4]oxazin-8-yl)benzonitrile] |
| 0.41 | 0.66 | N#Cc1ccc(-c2cncc3c2OCCN3S(=O)(=O)c2ccc(Cl)cc2)cc1 [O6, 4-(4-((4-Chlorophenyl)sulfonyl)-3,4-dihydro-2H-pyrido[4,3-b][1,4]oxazin-8-yl)benzonitrile] |
| 0.47 | 0.12 | N#Cc1ccc(-c2cncc3c2OCCN3S(=O)(=O)c2cccc(Cl)c2)cc1 [O7, 4-(4-((3-Chlorophenyl)sulfonyl)-3,4-dihydro-2H-pyrido[4,3-b][1,4]oxazin-8-yl)benzonitrile] |
| 0.02 | 0.02 | COc1ccc(S(=O)(=O)N2CCOc3c(-c4ccc(C#N)cc4)cncc32)cc1 [O8, 4-(4-((4-Methoxyphenyl)sulfonyl)-3,4-dihydro-2H-pyrido[4,3-b][1,4]oxazin-8-yl)benzonitrile] |
| 0.11 | 1.1 | N#Cc1ccc(-c2cncc3c2OCCN3S(=O)(=O)c2ccc([N+](=O)[O-])cc2)cc1 [O9, 4-(4-((4-Nitrophenyl)sulfonyl)-3,4-dihydro-2H-pyrido[4,3-b][1,4]oxazin-8-yl)benzonitrile] |
| 0.41 | 2.8 | N#Cc1ccc(-c2cncc3c2OCCN3S(=O)(=O)c2cccc([N+](=O)[O-])c2)cc1 [O10, 4-(4-((3-Nitrophenyl)sulfonyl)-3,4-dihydro-2H-pyrido[4,3-b][1,4]oxazin-8-yl)benzonitrile] |
| 0.04 | 2 | N#Cc1ccc(-c2cncc3c2OCCN3S(=O)(=O)c2ccc(C(F)(F)F)cc2)cc1 [O11, 4-(4-((4-(Trifluoromethyl)phenyl)sulfonyl)-3,4-dihydro-2H-pyrido[4,3-b][1,4]oxazin-8-yl)benzonitrile] |
| 0.18 | 0.74 | N#Cc1ccc(-c2cncc3c2OCCN3S(=O)(=O)c2cccc(C(F)(F)F)c2)cc1 [O12, 4-(4-((3-(Trifluoromethyl)phenyl)sulfonyl)-3,4-dihydro-2H-pyrido[4,3-b][1,4]oxazin-8-yl)benzonitrile] |
| 0.48 | 0.31 | N#Cc1ccc(-c2cncc3c2OCCN3S(=O)(=O)c2cccnc2)cc1 [O13, 4-(4-(Pyridin-3-ylsulfonyl)-3,4-dihydro-2H-pyrido[4,3-b][1,4]oxazin-8-yl)benzonitrile] |
| 0.2 | 0.41 | CS(=O)(=O)N1CCOc2c(-c3ccc(C#N)cc3)cncc21 [O14, 4-(4-(Methylsulfonyl)-3,4-dihydro-2H-pyrido[4,3-b][1,4]oxazin-8-yl)benzonitrile] |
| 0.25 | 1.46 | N#Cc1ccc(-c2cncc3c2OCCN3S(=O)(=O)c2cccc3cccnc23)cc1 [O15, 4-(4-(Quinolin-8-ylsulfonyl)-3,4-dihydro-2H-pyrido[4,3-b][1,4]oxazin-8-yl)benzonitrile] |
| 0.56 | 0.04 | N#Cc1ccc(-c2cncc3c2OCCN3S(=O)(=O)c2cccs2)cc1 [O16, 4-(4-(Thiophen-2-ylsulfonyl)-3,4-dihydro-2H-pyrido[4,3-b][1,4]oxazin-8-yl)benzonitrile] |
| 0.39 | 6.5 | N#Cc1ccc(-c2cncc3c2OCCN3S(=O)(=O)c2cccc3ccccc23)cc1 [O17, 4-(4-(Naphthalen-1-ylsulfonyl)-3,4-dihydro-2H-pyrido[4,3-b][1,4]oxazin-8-yl)benzonitrile] |
| 0.2 | 0.91 | N#Cc1ccc(-c2cncc3c2OCCN3S(=O)(=O)c2ccc3ccccc3c2)cc1 [O18, 4-(4-(Naphthalen-2-ylsulfonyl)-3,4-dihydro-2H-pyrido[4,3-b][1,4]oxazin-8-yl)benzonitrile] |
| 23.1 | 1350 | N#Cc1ccc(-c2cncc3c2OCCN3C(=O)c2ccc(F)cc2)cc1 [O19, 4-(4-(4-Fluorobenzoyl)-3,4-dihydro-2H-pyrido[4,3-b][1,4]oxazin-8-yl)benzonitrile] |
| 25.2 | 1730 | N#Cc1ccc(-c2cncc3c2OCCN3C(=O)c2cccc(F)c2)cc1 [O20, 4-(4-(3-Fluorobenzoyl)-3,4-dihydro-2H-pyrido[4,3-b][1,4]oxazin-8-yl)benzonitrile] |
| 26.1 | 1130 | N#Cc1ccc(-c2cncc3c2OCCN3C(=O)c2ccccc2F)cc1 [O21, 4-(4-(2-Fluorobenzoyl)-3,4-dihydro-2H-pyrido[4,3-b][1,4]oxazin-8-yl)benzonitrile] |
| 108 | 3400 | COc1ccc(C(=O)N2CCOc3c(-c4ccc(C#N)cc4)cncc32)cc1 [O22, 4-(4-(4-Methoxybenzoyl)-3,4-dihydro-2H-pyrido[4,3-b][1,4]oxazin-8-yl)benzonitrile] |
| 29.5 | 516 | COc1cccc(C(=O)N2CCOc3c(-c4ccc(C#N)cc4)cncc32)c1 [O23, 4-(4-(3-Methoxybenzoyl)-3,4-dihydro-2H-pyrido[4,3-b][1,4]oxazin-8-yl)benzonitrile] |
